Like-named read-outs stand apart in the source and are kept apart here.
Tests used:
Format in all cases: cell-based
[1] = system: Alternaria solani mycelia; assay: Photodynamic inhibition of Alternaria solani mycelia, percentage of dead samples after 7 days on agar; conditions: Table 5
Procedure: (§1) In the experiments, Alternaria solani mycelia were grown in liquid medium for 24 hours. Small spheres of the mycelia (average diameter 2 mm) were incubated for 100 minutes with 100 μM of Mg-Chlorophyllin with 0 to 5 mM of Disodium-EDTA. Samples were illuminated with 395 nm (fluence 106.6 J cm^−2) for 120 mins and the radial growth of mycelial patches after 7 days on agar medium was measured. A sample was considered dead, if there was no growth observable after 7 days on agar plates.
as §1, with “Chlorin E6” for “100 μM of Mg-Chlorophyllin”, “or without” for “0 to”, “disodium-EDTA.” for “Disodium-EDTA.”
The protocol for the PDI of A. solani was as follows (for Experiment 2 and 5): • Grow A. solani on tomato-agar for some days. • Transfer parts of the growing mycelium form the edge of the A. solani (no conidia) to liquid tomato medium. • Incubate overnight at 26° C. under constant agitation. • Transfer the grown mycelia (spheres of mycelia, approximately 2 mm in diameter) to 24 well plates. • Add 500 microlitres of the PS to the well (PBS for the Co and light only controls). • Incubate under agitation for 100 minutes. • Illuminate under agitation for 120 minutes. • Transfer the treated mycelia to tomato-agar plates and incubate for one week at room temperature. • Evaluate by counting of dead samples.

[2] = system: Sclerotinia homoeocarpa; assay: Radial growth of dollar spot fungus after treatment of plugs in PBS (24 well plates), dark vs light
Procedure: In this example, control of dollar spot fungus (Sclerotinia homoeocarpa) with chlorins combined with a chelating agent was assessed. Treatments were prepared in Phosphate Buffered Saline (PBS) in 24 well plates (in duplicates for light vs. dark incubation) at desired concentrations. Then, a 5 mm diameter plug of a Sclerotinia homoeocarpa isolate (3 isolates total tested) was inoculated into the PBS and incubated at 21° C. in the dark for 2 hours. After 2 hours, one of the 24 well plates (with isolates in triplicate) is left in the dark and one 24 well plate is placed under illumination for 1 hour (all at 21° C.). Following illumination, fungal plugs are removed from PBS, blotted dry on sterile filter paper and transferred to non-amended Potato Dextrose Agar (PDA). Radial growth of the fungus is monitored daily until the growth of S. homoeocarpa reaches the edge of the Petri-dish. Illumination is provided by LED lights emitting about 1000 μmol/m^2/s photosynthetically active radiation (PAR). In this example, control of dollar spot fungus (Sclerotinia homoeocarpa) with Zinc Protoporphyrin IX (Zn-PPIX) combined with EDTA was assessed. Treatments were prepared in Phosphate Buffered Saline (PBS) in 24 well plates (in duplicates for light vs. dark incubation) at desired concentrations. Then, a 5 mm diameter plug of a Sclerotinia homoeocarpa isolate (3 isolates total tested) was inoculated into the PBS and incubated at 21° C. in the dark for 2 hours. After 2 hours, one of the 24 well plates (with isolates in triplicate) is left in the dark and one 24 well plate is placed under illumination for 1 hour (all at 21° C.). Following illumination, fungal plugs are removed from PBS, blotted dry on sterile filter paper and transferred to non-amended Potato Dextrose Agar (PDA). Radial growth of the fungus is monitored daily until the growth of S. homoeocarpa reaches the edge of the Petri-dish. Illumination is provided by LED lights emitting about 1000 μmol/m^2/s photosynthetically active radiation (PAR). In this example, control of dollar spot fungus (Sclerotinia homoeocarpa) with bacteriochlorin combined with EDTA was assessed. Treatments were prepared in Phosphate Buffered Saline (PBS) in 24 well plates (in duplicates for light vs. dark incubation) at desired concentrations. Then, a 5 mm diameter plug of a Sclerotinia homoeocarpa isolate (3 isolates total tested) was inoculated into the PBS and incubated at 21° C. in the dark for 2 hours. After 2 hours, one of the 24 well plates (with isolates in triplicate) is left in the dark and one 24 well plate is placed under illumination for 1 hour (all at 21° C.). Following illumination, fungal plugs are removed from PBS, blotted dry on sterile filter paper and transferred to non-amended Potato Dextrose Agar (PDA). Radial growth of the fungus is monitored daily until the growth of S. homoeocarpa reaches the edge of the Petri-dish. Illumination is provided by LED lights emitting about 1000 μmol/m^2/s photosynthetically active radiation (PAR). In this example, control of dollar spot fungus (Sclerotinia homoeocarpa) with Aluminum chlorin e6 combined with EDTA was assessed. Treatments were prepared in Phosphate Buffered Saline (PBS) in 24 well plates (in duplicates for light vs. dark incubation) at desired concentrations. Then, a 5 mm diameter plug of a Sclerotinia homoeocarpa isolate (3 isolates total tested) was inoculated into the PBS and incubated at 21° C. in the dark for 2 hours. After 2 hours, one of the 24 well plates (with isolates in triplicate) is left in the dark and one 24 well plate is placed under illumination for 1 hour (all at 21° C.). Following illumination, fungal plugs are removed from PBS, blotted dry on sterile filter paper and transferred to non-amended Potato Dextrose Agar (PDA). Radial growth of the fungus is monitored daily until the growth of S. homoeocarpa reaches the edge of the Petri-dish. Illumination is provided by LED lights emitting about 1000 μmol/m^2/s photosynthetically active radiation (PAR). […]

[3] = system: Sclerotinia homoeocarpa; assay: Radial growth of dollar spot fungus on amended Potato Dextrose Agar, dark vs light; conditions: for inhibition at 500 µM / inhibition at 1000 µM: Clarireedia homoeocarpa, read-out: % Inhibition
[4] = system: E. Coli K-12; assay: E. Coli assay under LED lamps, colony count; conditions: Table 13; light; 1 mM Curcumin in 0.25% Tween 80 solution
Procedure: Regarding the E. Coli assay tests in the above examples, the following procedure was used: • 1. E. Coli K-12 inoculated in 5 mL TSB and placed in a shaking incubator overnight. • 2. Dilute culture in 500 mL PBS (˜10̂8 CFU/mL) and placed in shaking incubator for 30 minutes at […]. • 3.15 mL samples created using 12 mL culture and a mixture of PBS buffer and sample compounds. • 4. Placed under LED lamps for 2 hours (40 W/m^2). • 5. Samples diluted to 10^−4 and culture controls diluted to 10^−5 for plating through series dilutions. • 6. 0.1 mL plated of each sample in triplicates on TSA base (10^−3 and 10^−4 for samples. 10^−4 and 10^−5 for controls). • 7. Incubated overnight at 37° C. • 8. Colonies counted next morning and recorded.

[5] = system: Botrytis cinerea mycelia; assay: Photodynamic inhibition of Botrytis cinerea mycelia, percentage of dead samples after 7 days on agar; conditions: Table 4; EDTA-Ca 5 mM alone; with light
Procedure: as §1, with “Botrytis cinerea” for “Alternaria solani”, “48” for “24”, “with” for “with 100 μM of”, “or without” for “0 to”, “mM” for “mM of”, “minutes” for “mins”
as §1, with “Botrytis cinerea” for “Alternaria solani”, “48” for “24”, “with” for “with 100 μM of”, “or without” for “0 to”, “EDTA (calcium or disodium).” for “of Disodium-EDTA.”, “min” for “mins”
as §1, with “Botrytis cinerea” for “Alternaria solani”, “48” for “24”, “with” for “with 100 μM of”, “or without Baypure DS100” for “0 to 5 mM of Disodium-EDTA.”, “min” for “mins”
The protocol for the PDI of B. cinerea was as follows (for experiments 3 and 4 described above): • Grow B. cinerea on malt-peptone-agar for some days. • Transfer spores of B. cinerea to liquid malt-peptone medium. • Incubate for 2-3 days at 26° C. under constant agitation. • Transfer the grown mycelia (spheres of mycelia, approximately 2 mm diameter) to 24 well plates. • Add 500 μl of the PS to the well. • Incubate under agitation for 100 minutes in the dark. • Illuminate under agitation for 120 minutes. • Transfer the treated mycelia to malt-peptone-agar plates and incubate for one week at room temperature. • Evaluate by counting of dead samples.

[6] = Table 9A, dark, Curcumin 500 μM in 0.25% Tween 80
[7] = Table 9A, dark, Curcumin 1000 μM in 0.25% Tween 80
[8] = Table 9B, light, Curcumin rate 500 μM in 0.25% Tween 80
[9] = Table 9B, light, Curcumin rate 1000 μM in 0.25% Tween 80
[10] = Table 9A, dark, Ca-EDTA 100 μM, no curcumin
[11] = Table 9B, light, Ca-EDTA 100 μm, no curcumin

`C=Cc1c(C)c2cc3nc(c(CC(=O)O)c4[nH]c(cc5nc(cc1[nH]2)C(C)=C5CC)c(C)c4C(=O)O)[C@@H](CCC(=O)O)[C@@H]3C` [Chlorin E6] gave a dead % ([1]; light, 1 μM Chlorin E6) of 0.0%, a dead % ([1]; light, 10 μM Chlorin E6) of 8.3% and a dead % ([1]; light, 100 μM Chlorin E6) of 0%. For the same compound, the dead % ([1]; no light, 100 μM Chlorin E6) was 0.0%, the “% Inhibition” value ([2]; Table 18A, dark, rate 10 μM) was −1.49% and the “Mean Radial Growth” value ([2]; Table 18A, dark, rate 10 μM) was 11.33 mm. The “% Inhibition” value ([2]; Table 18A, dark, rate 100 μM) was 3.48%, the “Mean Radial Growth” value ([2]; Table 18A, dark, rate 100 μM) was 10.78 mm and the “% Inhibition” value ([2]; Table 18B, light, rate 10 μM) was 24.12%. For the same compound, the “Mean Radial Growth” value ([2]; Table 18B, light, rate 10 μM) was 8.39 mm, the “% Inhibition” value ([2]; Table 18B, light, rate 100 μM) was 11.06% and the “Mean Radial Growth” value ([2]; Table 18B, light, rate 100 μM) was 9.83 mm.

`COc1cc(/C=C/C(=O)CC(=O)/C=C/c2ccc(O)c(OC)c2)ccc1O` [Curcumin] gave an inhibition at 500 µM [3, 6] of 11.4%, an inhibition at 1000 µM [3, 7] of 33% and an inhibition at 500 µM [3, 8] of 8.1%. The inhibition at 1000 µM [3, 9] was 28.9%, the “Mean Radial Growth” value [3, 6] was 13.1 mm and the “Mean Radial Growth” value [3, 7] was 9.9 mm. For the same compound, the “Mean Radial Growth” value [3, 8] was 12.4 mm, the “Mean Radial Growth” value [3, 9] was 9.6 mm and the “% Inactivation” value [4] was 86.0%. For the same compound, the CFU/mL [4] was 1.24E+06 CFU/mL and the LogCFU/mL [4] was 6.09 LogCFU/mL.

With `O=C([O-])CN(CCN(CC(=O)[O-])CC(=O)[O-])CC(=O)[O-].[Ca+2].[Na+].[Na+]` [EDTA-Ca, calcium disodium EDTA] the dead % [5] was 0%, the “% Inhibition” value [3, 10] was 80.8% and the “Mean Radial Growth” value [3, 10] was 2.8 mm. For the same compound, the “% Inhibition” value [3, 11] was 76.5% and the “Mean Radial Growth” value [3, 11] was 3.2 mm.

From patent US20200253211A1, “PHOTODYNAMIC INHIBITION OF MICROBIAL PATHOGENS IN PLANTS” (SUNCOR ENERGY INC, priority 2017, published 2020)
